# Results from ChEMBL document CHEMBL1201862, “PubChem BioAssay data set” (2004).
#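 Grown in 96-well plates, cells were treated for 48 hours with each compound at five concentrations. Insufficient inhibition: endpoint recorded as highest concentration tested. The concentration for 50% growth inhibition is given as GI50.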 Active and inactive are the calls of the source. No stated cut-off is given here; in the data, active = GI50 up to about 1.1 µM and inactive = higher.
# Key:
# Experiment in all cases: DTP human tumour cell line panel, 48 h
# CAKI-1 = tested on: CAKI-1
# UO-31 = tested on: UO-31
# 786-0 = tested on: 786-0
# PC-3 = tested on: PC-3
# SF-539 = tested on: SF-539
# KM12 = tested on: KM12
# MDA-MB-435 = tested on: MDA-MB-435
# U-251 = tested on: U-251
# HL-60 = tested on: HL-60
# CCRF-CEM = tested on: CCRF-CEM
# ACHN = tested on: ACHN
# RPMI-8226 = tested on: RPMI-8226
# MOLT-4 = tested on: MOLT-4
# OVCAR-4 = tested on: OVCAR-4
# OVCAR-5 = tested on: OVCAR-5
# TK-10 = tested on: TK-10
# SK-MEL-2 = tested on: SK-MEL-2
# SF-268 = tested on: SF-268
# T47D = tested on: T47D
# SW-620 = tested on: SW-620
# COLO 205 = tested on: COLO 205
# HT-29 = tested on: HT-29
# MDA-MB-231 = tested on: MDA-MB-231
# HCT-116 = tested on: HCT-116
# SNB-19 = tested on: SNB-19
# A549 = tested on: A549
# SNB-75 = tested on: SNB-75
# K562 = tested on: K562
# HCT-15 = tested on: HCT-15
# BT-549 = tested on: BT-549
# NCI-H23 = tested on: NCI-H23
# SK-OV-3 = tested on: SK-OV-3
# HOP-92 = tested on: HOP-92
# NCI-H460 = tested on: NCI-H460
# IGROV-1 = tested on: IGROV-1
# NCI-H522 = tested on: NCI-H522
# SR = tested on: SR
# SK-MEL-5 = tested on: SK-MEL-5
# A498 = tested on: A498
# UACC-257 = tested on: UACC-257
# Malme-3M = tested on: Malme-3M
# MDA-N = tested on: MDA-N
# RXF 393 = tested on: RXF 393
# NCI-H226 = tested on: NCI-H226
# SF-295 = tested on: SF-295
# UACC-62 = tested on: UACC-62
# M14 = tested on: M14
# Hs-578T = tested on: Hs-578T
# EKVX = tested on: EKVX
# SN12C = tested on: SN12C
# DU-145 = tested on: DU-145
# NCI/ADR-RES = tested on: NCI/ADR-RES
# OVCAR-8 = tested on: OVCAR-8
# SK-MEL-28 = tested on: SK-MEL-28
# HOP-62 = tested on: HOP-62
# HCC 2998 = tested on: HCC 2998
# OVCAR-3 = tested on: OVCAR-3
smiles,measurement,setting,value
Clc1cc(-c2ccccc2)nc(Nc2nc3ccccc3[nH]2)n1,GI50,CAKI-1,2.14 µM (inactive)
same,GI50,UO-31,55 µM (inactive)
same,GI50,786-0,16.5 µM (inactive)
same,GI50,PC-3,44.7 µM (inactive)
same,GI50,SF-539,> 100 µM (inactive)
same,GI50,KM12,40.2 µM (inactive)
same,GI50,MDA-MB-435,23.3 µM (inactive)
same,GI50,U-251,15.3 µM (inactive)
same,GI50,HL-60,0.832 µM (active)
same,GI50,CCRF-CEM,6.08 µM (inactive)
same,GI50,ACHN,17.5 µM (inactive)
same,GI50,RPMI-8226,> 100 µM (inactive)
same,GI50,MOLT-4,22.3 µM (inactive)
same,GI50,OVCAR-4,15.9 µM (inactive)
same,GI50,OVCAR-5,> 100 µM (inactive)
same,GI50,TK-10,> 100 µM (inactive)
same,GI50,SK-MEL-2,> 10 µM (inactive)
same,GI50,SF-268,23.6 µM (inactive)
same,GI50,T47D,> 100 µM (inactive)
same,GI50,SW-620,6.01 µM (inactive)
same,GI50,COLO 205,13.8 µM (inactive)
same,GI50,HT-29,15 µM (inactive)
same,GI50,MDA-MB-231,15 µM (inactive)
same,GI50,HCT-116,25.1 µM (inactive)
same,GI50,SNB-19,83 µM (inactive)
same,GI50,A549,> 100 µM (inactive)
same,GI50,SNB-75,34.4 µM (inactive)
same,GI50,K562,4.05 µM (inactive)
same,GI50,HCT-15,6.95 µM
same,GI50,BT-549,22.9 µM (inactive)
same,GI50,NCI-H23,18.2 µM (inactive)
same,GI50,SK-OV-3,64.7 µM (inactive)
same,GI50,HOP-92,2.2 µM (inactive)
same,GI50,NCI-H460,19 µM (inactive)
same,GI50,IGROV-1,14.7 µM (inactive)
same,GI50,NCI-H522,11.4 µM (inactive)
same,GI50,SR,2.84 µM (inactive)
same,GI50,SK-MEL-5,38.5 µM (inactive)
same,GI50,A498,33.3 µM (inactive)
same,GI50,UACC-257,20.6 µM (inactive)
same,GI50,Malme-3M,28.2 µM (inactive)
same,GI50,MDA-N,18.8 µM (inactive)
same,GI50,RXF 393,4.27 µM (inactive)
same,GI50,NCI-H226,55.5 µM (inactive)
same,GI50,SF-295,37.1 µM (inactive)
same,GI50,UACC-62,17.7 µM (inactive)
same,GI50,M14,23.7 µM (inactive)
same,GI50,Hs-578T,27.3 µM (inactive)
same,GI50,EKVX,24 µM (inactive)
same,GI50,SN12C,28.2 µM (inactive)
same,GI50,DU-145,> 100 µM (inactive)
same,GI50,NCI/ADR-RES,43.5 µM (inactive)
same,GI50,OVCAR-8,22 µM (inactive)
C(=C/c1ccc2nc(-c3ccc(/C=C/C=N/NC4=NCCCN4)cc3)cn2c1)/C=N/NC1=NCCCN1,GI50,CAKI-1,12.1 µM (inactive)
same,GI50,UO-31,> 100 µM (inactive)
same,GI50,786-0,42.9 µM (inactive)
same,GI50,PC-3,20.3 µM (inactive)
same,GI50,SF-539,25.5 µM (inactive)
same,GI50,KM12,6.31 µM (inactive)
same,GI50,SK-MEL-28,> 100 µM (inactive)
same,GI50,MDA-MB-435,26.1 µM (inactive)
same,GI50,U-251,16.1 µM (inactive)
same,GI50,CCRF-CEM,35.7 µM (inactive)
same,GI50,ACHN,46.7 µM (inactive)
same,GI50,RPMI-8226,0.822 µM (active)
same,GI50,MOLT-4,42.2 µM (inactive)
same,GI50,OVCAR-4,> 100 µM (inactive)
same,GI50,OVCAR-5,49.9 µM (inactive)
same,GI50,TK-10,19.5 µM (inactive)
same,GI50,HOP-62,> 100 µM (inactive)
same,GI50,SK-MEL-2,> 100 µM (inactive)
same,GI50,SF-268,12.2 µM (inactive)
same,GI50,T47D,40.9 µM (inactive)
same,GI50,COLO 205,> 100 µM (inactive)
same,GI50,MDA-MB-231,15.2 µM (inactive)
same,GI50,HCT-116,6.81 µM (inactive)
same,GI50,HCC 2998,45.4 µM (inactive)
same,GI50,SNB-19,89.7 µM (inactive)
same,GI50,A549,10.3 µM (inactive)
same,GI50,SNB-75,35.7 µM (inactive)
same,GI50,K562,4.39 µM (inactive)
same,GI50,HCT-15,> 100 µM
same,GI50,BT-549,> 100 µM (inactive)
same,GI50,OVCAR-3,> 100 µM (inactive)
same,GI50,NCI-H23,> 100 µM (inactive)
same,GI50,SK-OV-3,> 100 µM (inactive)
same,GI50,HOP-92,> 100 µM (inactive)
same,GI50,NCI-H460,13.3 µM (inactive)
same,GI50,IGROV-1,31.5 µM (inactive)
same,GI50,NCI-H522,9.64 µM (inactive)
same,GI50,SR,31.2 µM (inactive)
same,GI50,SK-MEL-5,> 100 µM (inactive)
same,GI50,A498,> 100 µM (inactive)
same,GI50,UACC-257,10.6 µM (inactive)
same,GI50,MDA-N,43.9 µM (inactive)
same,GI50,RXF 393,23.8 µM (inactive)
same,GI50,NCI-H226,14.8 µM (inactive)
same,GI50,SF-295,> 100 µM (inactive)
same,GI50,UACC-62,30.1 µM (inactive)
same,GI50,M14,66.4 µM (inactive)
same,GI50,Hs-578T,15.8 µM (inactive)
same,GI50,EKVX,18.8 µM (inactive)
same,GI50,SN12C,> 100 µM (inactive)
same,GI50,DU-145,17.5 µM (inactive)
same,GI50,NCI/ADR-RES,22.1 µM (inactive)
same,GI50,OVCAR-8,17.6 µM (inactive)
